Experimental data reported in US20120108624A1, “TREATMENT OF DYSKINESIA RELATED DISORDERS” (priority 2009, published 2012).
Structures can show the parent of a compound that is named as a salt.

Columns and labels:
[1] = system: Sprague Dawley rats with unilateral 6-OHDA lesions; experiment: Induction of dyskinesia model with naive 6-OHDA rats (AIMS); format: in vivo, rat; settings: once daily s.c. for 14 days, scored up to day 12
Method: Twenty male Sprague Dawley rats with unilateral 6-OHDA lesions were used to test induction of dyskinesia by compound 10 (administered subcutaneously; n=7; group 1) compared to L-DOPA/benserazide (6 mg/kg / 15 mg/kg subcutaneously; n=7; group 2) and apomorphine (1 mg/kg subcutaneously; n=6; group 3). Benserazide is a DOPA decarboxylase inhibitor which is unable to cross the blood-brain barrier; it is used to prevent metabolism of L-DOPA to dopamine outside the brain. Three weeks after 6-OHDA surgery, the animals were tested for their rotation response induced by 2.5 mg/kg amphetamine, which induces ipsilateral circling (amphetamine increases the level dopamine in the brain via the intact neurons on the unlesioned side causing the animals to rotate in the opposite direction as compared to their response to direct agonists such as L-DOPA and apomorphine that act predominantly on the lesioned side of the brain). […] Rats where then randomly allocated to the three treatment groups balancing the groups for the animals' rotation response on amphetamine.
Rats received drug for 14 consecutive days and were scored on days 1, 2, 3, 4, 5, 8, 10 and 12. […] Following this experiment all rats were given subcutaneous injections of compound 10 from day 15-19 in order to determine how Example I influenced the severity of dyskinesia seen in the apomorphine and L-DOPA groups. Dykinesia scoring was performed on day 19 of the experiment (corresponding to 5 days on compound 10).

[2] = system: rats with unilateral 6-OHDA lesions; experiment: 6-OHDA rat model (rotation response); format: in vivo; settings: rotation in unilateral 6-OHDA rats; for D1/D2 ratio: MED and MED to overcome Nemonapride block
Excerpt: Dopamine agonists can have activity at either the D1 receptors, the D2 receptors, or both. The rotation response in rats with unilateral 6-OHDA lesions can be used to assess compounds for their ability to stimulate both receptor types and induce rotation (Ungerstedt and Arbuthnott, Brain Res., 1970, 24, 485; Setler, et al. Eur. J. Pharmacol., 1978, 50(4), 419; and Ungerstedt, et al. “Advances in Dopamine Research” (Kohsaka, Ed.), Pergamon Press, 1982, Oxford, p. 219). 6-OHDA (6-hydroxydopamine) is a neurotoxin used by neurobiologists to selectively kill dopaminergic neurons at the site of injection in the brain in experimental animals. In the 6-OHDA model, the nigrostraital dopamine cells are destroyed on one side of the brain (unilateral) by injecting 6-OHDA into the median forebrain bundle, located in front of the substantia nigra. This unilateral injection combined with stimulation by dopamine agonists such as apomorphine will induce rotation behaviour as only one side of the brain is stimulated. Experiments consist of determining a minimum effective dose (MED) to induce rotation for the compound in question. Once a MED has been determined, a second experiment is performed to determine the MED of the compound to overcome Nemonapride block (MEDNemonapride). Nemonapride is a D2 antagonist that blocks the D2 receptor, therefore any observed rotations would be dependent upon activity at the D1 receptor. Finally, once the MEDNemonapride is known a third experiment is run using the MEDNemonapride dose and observing the effect of the D1 antagonist, SCH 23390 alone, the D2 antagonist, Nemonapride alone and finally, the effect of combined treatment with SCH 23390 and Nemonapride. […] This model was validated using apomorphine as the proof-of-principle compound for mixed D1/D2 agonists.
Dopamine agonists can have activity at either the D1 receptors, the D2 receptors, or both. The rotation response in rats with unilateral 6-OHDA lesions can be used to assess compounds for their ability to stimulate both receptor types and induce rotation (Ungerstedt and Arbuthnott, Brain Res. 24, 485 (1970); Setler, et al., Eur. J. Pharmacol., 50(4), 419 (1978); and Ungerstedt, et al., “Advances in Dopamine Research” (Kohsaka, Ed.), Pergamon Press, 1982, Oxford, p. 219). 6-OHDA (6-hydroxydopamine) is a neurotoxin used by neurobiologists to selectively kill dopaminergic neurons at the site of injection in the brain in experimental animals. In the 6-OHDA model the nigrostraital dopamine cells are destroyed on one side of the brain (unilateral) by injecting 6-OHDA into the median forebrain bundle, located in front of the substantia nigra. […] Once a MED has been determined, a second experiment is performed to determine the MED of the compound to overcome Nemonapride block (MEDNemonapride). […]

[3] = system: 'parkinsonian' rats (6-OHDA rats); experiment: Dyskinesia rat model, Example 3 (AIMs, test drug vs. L-DOPA/benserazide); format: in vivo
Method: A rat dyskinesia model reported in the literature (Lundblad, et al., Eur. J Neurosci., 2002, 15, 120) was used to examine the effects of the active metabolite vs. L-DOPA/benserazide with respect to dyskinesias that were assessed as abnormal involuntary movements (AIMs) in ‘parkinsonian’ rats.
0-180 min. Animals were scored for dyskinesias.
(§1) At days 1, 3, 5, 8 and 12, animals were scored according to AIM-scoring by recording dyskinesias using the Abnormal Involuntary Movement Scale (AIMS) as described previously (Lundblad, et al., Eur. J Neurosci., 2002, 15, 120). Days 15-26: Group A animals were treated with the test drug (as group B) instead of L-DOPA/benserazide. Day 15, 16, 17, 19, 22, 24 and 26: Animals scored according AIM-scoring.

[4] = system: rats with unilateral 6-OHDA lesions; experiment: Dyskinesia profile in rats with unilateral 6-OHDA lesions (summary statements); format: in vivo, rat; settings: for induction of dyskinesias compared with L-DOPA and apomorphine / reduction of L-DOPA induced dyskinesias compared with D2 agonists (pramipexole): rats with unilateral 6-OHDA lesions
[5] = Conversion into the active metabolite upon in-vivo administration
MPTP treated marmosets = experiment: Anti-Parkinsonian effects in MPTP-treated common marmosets; format: in vivo, common marmoset; settings: dosed p.o.
Method: (§2) The experiments were conducted using 6 MPTP treated marmosets (2.0 mg/kg daily for up to 5 consecutive days dissolved in sterile 0.9% saline solution). All the animals had previously been treated with L-DOPA (12.5 mg/kg p.o., plus carbidopa 12.5 mg/kg p.o.) administered daily for up to 30 days in order to induce dyskinesia. […] Domperidone was administered 60 min before any of the test compounds. Domperidone is an anti-dopaminergic drug that suppresses nausea and vomiting. Locomotor Activity was assessed using test cages that are comprised of 8 photo-electric switches comprised of 8 infra-red beams which are strategically placed in the cage and interruption of a beam is recorded as one count. […] The assessment of motor disability was performed by a trained observer blinded to the treatment.
as §2, with “antidopaminergic” for “anti-dopaminergic”
as §2, with “compounds.” for “compounds. Domperidone is an anti-dopaminergic drug that suppresses nausea and vomiting.”

'parkinsonian' rats = experiment: Dyskinesia rat model, Example 4 (AIMs, Compound 12 vs. L-DOPA/Benserazide); format: in vivo
Method: A rat dyskinesia model reported in the literature (Lundblad, et al., Eur. J Neurosci., 2002, 15, 120) was used to examine the effects of Compound 12 vs. L-DOPA/Benserazide with respect to dyskinesias that were assessed as abnormal involuntary movements (AIMs) in ‘parkinsonian’ rats.
Throughout the study animals received L-DOPA/Benserazide (6 mg/kg and 15 mg/kg subcutaneous) or Compound 12 (group B) once daily at t=−20 min. 0-180 min. Animals were scored for dyskinesias. Days 1-14: All animals were dosed with L-DOPA/Benserazide (group A) or Compound 12 (group B).
as §1, with “previously.” for “previously (Lundblad, et al., Eur. J Neurosci., 2002, 15, 120).”, “Compound 12” for “the test drug”, “L-DOPA/Benserazide.” for “L-DOPA/benserazide.”

[6] = system: mouse model of severe dopamine depletion; experiment: Superiority model (MPTP mice treated with AMPT, motility); format: in vivo; settings: AMPT 250 mg/kg s.c., last 1 hour of recorded data
Method: On the day of the experiment, mice were treated with AMPT (250 mg/kg subcutaneously) and then returned to their home cages for 1.5 hours after which they were placed in individual cages in the motility unit. AMPT (alpha-methyl-p-tyrosine) is a drug that temporarily reduces brain catecholamine activity (in this case especially dopamine levels). […] Various dopaminergic compounds were tested for their ability to reverse the motility deficits produced in this model. […] Benserazide is a DOPA decarboxylase inhibitor which is unable to cross the blood-brain barrier; it is used to prevent metabolism of L-DOPA to dopamine outside the brain.
On the day of the experiment, mice were treated with AMPT (250 mg/kg subcutaneously) and then returned to their home cages for 1.5 hours after which they are placed in individual cages in the motility unit. AMPT (alpha-methyl-p-tyrosine) is a drug that temporarily reduces brain catecholamine activity (in this case especially dopamine levels). […] Various dopaminergic compounds are tested for their ability to reverse the motility deficits produced in this model. […] Benserazide is a DOPA decarboxylase inhibitor which is unable to cross the blood-brain barrier; it is used to prevent metabolism of L-DOPA to dopamine outside the brain.
On the day of the experiment, mice were treated with AMPT (250 mg/kg subcutaneously) and then returned to their home cages for 1.5 hours after which they were placed in individual cages in the motility unit. AMPT (alpha-methyl-p-tyrosine) is a drug that temporarily reduces brain catecholamine activity (in this case especially dopamine levels). […] Various dopaminergic compounds were tested for their ability to reverse the motility deficits produced in this model. […] Benserazide is a DOPA decarboxylase inhibitor which is unable to cross the blood-brain barrier; it was used to prevent metabolism of L-DOPA to dopamine outside the brain.

SMILES | dyskinesia scores (AIMS) [1] | induction of dyskinesias compared with L-DOPA and apomorphine [4] | reduction of L-DOPA induced dyskinesias compared with D2 agonists (pramipexole) [4] | conversion into active metabolite (Compound 10) [5] | D1/D2 ratio [2] | duration of reversal of motor disability compared to L-DOPA (MPTP treated marmosets) | efficacy compared to L-DOPA (MPTP treated marmosets) | locomotor activity and motor disability (MPTP treated marmosets) | reversal of motility deficits / restoration of locomotion [6] | further results
CCCN1CCC[C@@H]2Cc3c(ccc(O)c3O)C[C@H]21 [Compound 10, (4aR,10aR)-1-Propyl-1,2,3,4,4a,5,10,10a-octahydro-benzo[g]quinoline-6,7-diol hydrobromide] | about 30 | – | – | – | – | – | – | – | – | duration of action [2]: ca. 18 h
CCCN1CCC[C@@H]2Cc3c(ccc4c3OCO4)C[C@H]21 [Compound 11, (6aR,10aR)-7-n-Propyl-6,6a,7,8,9,10,10a,11-octahydro-1,3-dioxa-7-aza-cyclopenta[a]anthracene hydrochloride] | – | induce less dyskinesias than L-DOPA and apomorphine | reduce L-DOPA induced dyskinesias more effectively than D2 agonists | Convert into the Catechol-Containing Active Metabolite | about 2 | prolonged reversal of motor disability | as efficacious as L-DOPA | dose-related increases in locomotor activity and reversal of motor disability | – | dyskinesia scores (AIMS) ([3]; after eight days of once daily treatment, constant until day 12): 2-4; induction of dyskinesia compared with L-DOPA ([3]; days 1-14): significantly less dyskinesia than L-DOPA; reduction of the dyskinesias induced by L-DOPA ([3]; group A shifted from L-dopa/benserazide to the test drug, days 15-26): able to reduce the dyskinesias induced by L-DOPA; reversal of dyskinesias induced by L-DOPA/benserazide and apomorphine ([4]; rats lesioned with 6-OHDA): reversed dyskinesias
CCCN1CCC[C@@H]2CC3=C(CCCC3=O)C[C@H]21 [Compound 12, (4aR,10aR)-1-n-propyl-2,3,4,4a,5,7,8,9,10,10a-decahydro-1H-benzo[g]quinolin-6-one] | – | induces less dyskinesias than L-DOPA and apomorphine | reduces L-DOPA induced dyskinesias more effectively than D2 agonists | Convert into the Catechol-Containing Active Metabolite | – | prolonged reversal of motor disability | as efficacious as L-DOPA | dose-related increases in locomotor activity and reversal of motor disability | – | dyskinesia scores (AIMS) ('parkinsonian' rats; after eight days of once daily treatment): 10-25; dyskinesia scores (AIMS) after shifting group A from L-DOPA/benserazide ('parkinsonian' rats; compound 12 for 10 days after L-DOPA/benserazide): 30-35; induction of dyskinesia compared with L-DOPA ('parkinsonian' rats; days 1-14): significantly less dyskinesia than L-DOPA; reduction of the dyskinesias induced by L-DOPA ('parkinsonian' rats; group A shifted to compound 12, days 15-26): able to reduce the dyskinesias induced by L-DOPA
N[C@@H](Cc1ccc(O)c(O)c1)C(=O)O [L-DOPA] | about 70 | – | – | – | – | – | – | increased locomotor activity and reversed motor disability | able to reverse motility deficits | –
CN1CCc2cccc3c2[C@H]1Cc1ccc(O)c(O)c1-3 [apomorphine] | about 70 | – | – | – | about 3 | – | – | – | restored locomotion | reversal of motility deficits / restoration of locomotion ([6]; listed as Apomorphine): able to reverse motility deficits
CCCN(CCc1cccs1)[C@H]1CCc2c(O)cccc2C1 [rotigotine, reference compound] | – | – | – | – | – | – | – | – | – | D1 component [2]: could not be observed
